Measured values as given in patent US20100298141A1, “SUBSTITUTED PYRIDINE N-OXIDE HERBICIDES” (E. I. DU PONT DE NEMOURS AND COMPANY, priority 2007, published 2010).

Key:
[1] = system: common ragweed; experiment: Test C pre-/postemergence test; type: in vivo, Ambrosia elation
Summary of the method: (§1)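 Seeds were planted and treated preemergence with test chemical in a non-phytotoxic solvent mixture containing surfactant. Postemergence applications of the same formulation went onto plants 2 to 18 cm tall (1- to 4-leaf stage). A dash marks no test result.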

[2] = system: broadleaf signalgrass; experiment: Test F preemergence test; type: in vivo, Brachiaria platyphylla; settings: scale 0 to 100; for Signalgrass plant response rating: preemergence; for Plant response rating, Signalgrass: Preemergence
Description: (§2) Seeds of plant species selected from bermudagrass (Cynodon dactylon), Surinam grass (Brachiaria decumbens), large crabgrass (Digitaria sanguinalis), green foxtail (Setaria viridis), goosegrass (Eleusine indica), johnsongrass (Sorghum halepense), kochia (Kochia scoparia), pitted morningglory (Ipomoea lacunosa), purple nutsedge (Cyperus rotundus), common ragweed (Ambrosia elation), mustard (Brassica nigra), guineagrass (Panicum maximum), […] (Paspalum dilatatum), barnyardgrass (Echinochloa crus-galli), southern sandbur (Cenchrus echinatus), common sowthistle (Sonchus oleraceous), prickly […] spinosa), Italian ryegrass (Lolium multiflorum), common purslane (Portulaca oleracea), broadleaf signalgrass (Brachiaria platyphylla), common groundsel (Senecio vulgaris), common chickweed (Stellaria media), Virginia dayflower (Commelina virginica), annual bluegrass (Poa annua), naked crabgrass (Digitaria nuda), […] cochinchinensis), quackgrass (Elytrigia repens), Canada horseweed (Conyza canadensis), field bindweed (Convolvulus arvensis), […] (Bidens bipinnata), common mallow (Malva sylvestris), Russian thistle (Salsola kali), and sugarcane (Saccharum officinarum) were planted and treated preemergence with test chemicals formulated in a non-phytotoxic solvent mixture which included a surfactant. At a different time, sugarcane was treated with postemergence applications of some of the test chemicals formulated in the same manner. Plants were approximately 3- to 4-leaf stage for the postemergence treatments. Treated plants and controls were maintained in a greenhouse for 14 to 21 days, after which time all species were compared to controls and visually evaluated. […] A dash (-) response means no test result.

[3] = system: dallisgrass; experiment: Test F preemergence test; type: in vivo, Paspalum dilatatum; settings: scale 0 to 100
Description: as §2

[4] = system: bermudagrass; experiment: Test F preemergence test; type: in vivo, Cynodon dactylon; settings: scale 0 to 100
Description: as §2

[5] = system: common mallow; experiment: Test F preemergence test; type: in vivo, Malva sylvestris; settings: scale 0 to 100
Description: as §2

[6] = system: green foxtail; experiment: Test C pre-/postemergence test; type: in vivo, Setaria viridis
Summary of the method: as §1

[7] = system: quackgrass; experiment: Test F preemergence test; type: in vivo, Elytrigia repens; settings: scale 0 to 100
Description: as §2

[8] = system: mustard; experiment: Test F preemergence test; type: in vivo, Brassica nigra; settings: scale 0 to 100
Description: as §2

[9] = system: blackgrass; experiment: Test C pre-/postemergence test; type: in vivo, Alopecurus myosuroides
Summary of the method: as §1

[10] = system: prickly sida; experiment: Test F preemergence test; type: in vivo, Sida spinosa; settings: scale 0 to 100
Description: as §2

[11] = system: Surinam grass; experiment: Test F preemergence test; type: in vivo, Brachiaria decumbens; settings: scale 0 to 100; for Surinam Grass plant response rating: preemergence; for Plant response rating, Surinam Grass: Preemergence
Description: as §2

[12] = system: corn; experiment: Test A pre-/postemergence greenhouse test; type: in vivo, Zea mays; settings: for Plant response rating, Corn: 0 to 100 scale where 0 is no effect and 100 is complete control; for Corn plant response rating: 0 to 100 scale
Summary of the method: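 Visual injury ratings against untreated controls, taken roughly ten days after treatment in greenhouse. Plants were sprayed postemergence at one- to two-leaf stage (2–10 cm tall); at the same time, seeded loam/sand soil received a directed preemergence spray. Formulation: non-phytotoxic solvent mixture with surfactant.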

[13] = system: kochia; experiment: Test F preemergence test; type: in vivo, Kochia scoparia; settings: scale 0 to 100
Description: as §2

[14] = 62 g ai/ha, Preemergence, scale 0 to 100
[15] = 125 g ai/ha, preemergence, scale 0 (no effect) to 100 (complete control)
[16] = Postemergence, 125 g ai/ha, scale 0 to 100, 0 no effect, 100 complete control
[17] = Postemergence, 250 g ai/ha, scale 0 to 100, 0 no effect, 100 complete control
[18] = Preemergence, 31 g ai/ha, scale 0 to 100 (0 no effect, 100 complete control)
[19] = preemergence, 250 g ai/ha, scale 0 (no effect) to 100 (complete control)
[20] = Postemergence, 62 g ai/ha, scale 0 to 100, 0 no effect, 100 complete control

Cn1nc(C(F)(F)F)c(C[S+]([O-])c2ccc(F)c[n+]2[O-])c1OC(F)F (stereo not drawn) [Compound 58]
Ragweed plant response rating [1, 14]: 30
Ragweed plant response rating [1, 15]: 55
Plant response rating (0 to 100), Ragweed ([1]; Postemergence, 31 g ai/ha): 0
Plant response rating (0 to 100), Ragweed ([1]; Postemergence, 62 g ai/ha): 0
Plant response rating, Ragweed [1, 16]: 0
Plant response rating, Ragweed [1, 17]: 30
Plant response rating, Ragweed [1, 18]: 30
Ragweed plant response rating [1, 19]: 100
Signalgrass plant response rating ([2]; 125 g ai/ha): 90
Signalgrass plant response rating ([2]; 250 g ai/ha): 98
Plant response rating, Signalgrass ([2]; 62 g ai/ha): 80
Plant response rating, Signalgrass ([2]; 31 g ai/ha): 30
Dallisgrass plant response rating ([3]; 62 g ai/ha, Preemergence): 90
Dallisgrass plant response rating ([3]; 125 g ai/ha, preemergence): 98
Dallisgrass plant response rating ([3]; 250 g ai/ha, preemergence): 98
Plant response rating, Dallisgrass ([3]; Preemergence, 31 g ai/ha): 75
Bermudagrass plant response rating ([4]; 62 g ai/ha, Preemergence): 90
Bermudagrass plant response rating ([4]; 125 g ai/ha, preemergence): 100
Bermudagrass plant response rating ([4]; 250 g ai/ha, preemergence): 100
Plant response rating, Bermudagrass ([4]; Preemergence, 31 g ai/ha): 70
Mallow plant response rating ([5]; 62 g ai/ha, Preemergence): 25
Mallow plant response rating ([5]; 125 g ai/ha, preemergence): 90
Mallow plant response rating ([5]; 250 g ai/ha, preemergence): 100
Foxtail, Green plant response rating [6, 14]: 98
Foxtail, Green plant response rating [6, 15]: 100
Plant response rating (0 to 100), Foxtail, Green ([6]; Postemergence, 31 g ai/ha): 0
Plant response rating, Foxtail, Green [6, 20]: 25
Plant response rating, Foxtail, Green [6, 16]: 50
Plant response rating, Foxtail, Green [6, 17]: 80
Plant response rating, Foxtail, Green [6, 18]: 70
Foxtail, Green plant response rating [6, 19]: 100
Quackgrass plant response rating ([7]; 62 g ai/ha, Preemergence): 70
Quackgrass plant response rating ([7]; 125 g ai/ha, preemergence): 95
Quackgrass plant response rating ([7]; 250 g ai/ha, preemergence): 100
Plant response rating, Quackgrass ([7]; Preemergence, 31 g ai/ha): 35
Black Mustard plant response rating ([8]; 62 g ai/ha, Preemergence): 60
Black Mustard plant response rating ([8]; 125 g ai/ha, preemergence): 100
Black Mustard plant response rating ([8]; 250 g ai/ha, preemergence): 100
Plant response rating, Black Mustard ([8]; Preemergence, 31 g ai/ha): 50
Blackgrass plant response rating [9, 14]: 98
Blackgrass plant response rating [9, 15]: 100
Plant response rating (0 to 100), Blackgrass ([9]; Postemergence, 31 g ai/ha): 0
Plant response rating, Blackgrass [9, 20]: 0
Plant response rating, Blackgrass [9, 16]: 30
Plant response rating, Blackgrass [9, 17]: 80
Plant response rating, Blackgrass [9, 18]: 98
Blackgrass plant response rating [9, 19]: 100
Prickly Sida plant response rating ([10]; 62 g ai/ha, Preemergence): 65
Prickly Sida plant response rating ([10]; 125 g ai/ha, preemergence): 95
Prickly Sida plant response rating ([10]; 250 g ai/ha, preemergence): 98
Plant response rating, Prickly Sida ([10]; Preemergence, 31 g ai/ha): 0
Surinam Grass plant response rating ([11]; 125 g ai/ha): 100
Surinam Grass plant response rating ([11]; 250 g ai/ha): 100
Plant response rating, Surinam Grass ([11]; 62 g ai/ha): 98
Plant response rating, Surinam Grass ([11]; 31 g ai/ha): 80
Plant response rating, Corn ([12]; Postemergence, 125 g ai/ha): 50
Corn plant response rating ([12]; Postemergence, 500 g ai/ha, 0 is no effect, 100 is complete control): 70
Corn plant response rating ([12]; Preemergence, 125 g ai/ha, 0 no effect, 100 complete control): 40
Plant response rating, Corn ([12]; Preemergence, 500 g ai/ha): 90
Kochia plant response rating ([13]; 62 g ai/ha, Preemergence): 40
Kochia plant response rating ([13]; 125 g ai/ha, preemergence): 100
Kochia plant response rating ([13]; 250 g ai/ha, preemergence): 100
Plant response rating, Kochia ([13]; Preemergence, 31 g ai/ha): 20
